Results published in article PMC9699072 (Molecules, 2022).
“And” between values parts separate entries of the source, which are not always exact repeats. Equal values may be shown once. Where a name gives a salt, the structure may show the parent alone. Read-outs that look alike come from different tables or passages of the source.

Columns and labels:
[1] = FRAP (ferric reducing antioxidant power) assay; assay type: biochemical; settings: for FRAP TE (Trolox equivalent): mean ± SEM, n = 3, 1 h, 37 °C, pH 3.6
Procedure: The FRAP (ferric reducing antioxidant power) assay measures the ability of antioxidants to reduce the ferric 2,4,6-tripyridyl-s-triazine complex [Fe(TPTZ)2]^3+ to the intensely blue ferrous complex [Fe(TPTZ)2]^2+ in an acidic medium. The measurements were performed as previously described in detail. The results are expressed as TE (Trolox equivalents).
The FRAP (ferric reducing antioxidant power) assay measures the ability of antioxidants to reduce the ferric 2,4,6-tripyridyl-s-triazine complex [Fe (TPTZ)2]^3+ to the intensely blue ferrous complex [Fe (TPTZ)2]^2+ (λ = 593 nm) in acidic medium. 2,4,6-Tris(pyridin-2-yl)-1,3,5-triazine (TPTZ), FeCl3·6H2O, Trolox, quercetin and DMSO were obtained from Sigma-Aldrich Chemical Co. (St. Louis, MO, USA). The FRAP reagent contained 2.5 mL of 10 mM TPTZ solution in 40 mM HCl, 2.5 mL of 20 mM FeCl3·6H2O water solution, and 25 mL of 0.3 M acetate buffer (pH 3.6). Aliquots of 10 µL of the test compound solution in DMSO (0.5 mM) were mixed with 240 µL of FRAP reagent, and the absorbance of the mixture was measured spectrophotometrically (FLUOStar OPTIMA microplate spectrophotometer (BMG Labtech, Ortenberg, Germany)) at 600 nm after 1 h incubation at 37 °C against a blank. Trolox was used as a reference compound. Quercetin was used as a positive control. A calibration curve with linear formula y = 0.03x (R^2 = 0.998, p < 0.0001) was prepared for Trolox solutions in DMSO at a range of 2.5–100 µM, and the results are expressed as Trolox equivalents (TE), the values calculated as the ratio of the concentrations of Trolox and the test compound, resulting in the same effect.

[2] = target: T1, equine serum butyrylcholinesterase (BChE) (Equus caballus, UniProt P81908); experiment: Inhibition of BChE (Ellman's colorimetric assay); assay type: biochemical; settings: ± SEM, n = 3, 10 min incubation 25 °C
T1 construct: equine serum butyrylcholinesterase (BChE, EC 3.1.1.8); purchased Sigma-Aldrich (Saint Louis, MO, USA); host or cells: equine serum
Source text: (§1) Given the available literature data on the ability of pyrazole derivatives to inhibit acetylcholinesterase (AChE) and human carboxylesterase-1 (CES), we performed an investigation of the esterase profile for new compounds 1a–j and 4a–j, including an evaluation of their inhibitory effect on the standard enzymes set: human erythrocyte AChE, equine serum butyrylcholinesterase (BChE), and porcine liver CES (Table 2). The applicability of this set of enzymes was shown by us earlier.
(§2) Human erythrocyte acetylcholinesterase (AChE, EC 3.1.1.7), equine serum butyrylcholinesterase (BChE, EC 3.1.1.8), porcine liver carboxylesterase (CES, EC 3.1.1.1), acetylthiocholine iodide (ATCh), butyrylthiocholine iodide (BTCh), 4-nitrophenol acetate (4-NPA), and 5,5′-dithio-bis-(2-nitrobenzoic acid) (DTNB) were purchased from Sigma-Aldrich (Saint Louis, MO, USA).
(§3) All the kinetic experiments were performed under standard conditions, according to the protocol of IPAC RAS for a reversible inhibitors study.
(§4) Ellman’s colorimetric assay was used to measure AChE and BChE activity in 0.1 M K/Na phosphate buffer at pH 7.5, 25 °C [86]. Final concentrations of reactants were 0.33 mM DTNB, 0.02 unit/mL of AChE or BChE, and 1 mM of substrate (ATCh or BTCh, respectively). Reagent blanks consisted of reaction mixtures without enzyme to assess non-enzymatic hydrolysis of substrates. Porcine liver CES activity was assessed colorimetrically in 0.1 M K/Na phosphate buffer with pH 8.0 at 25 °C, by measuring the absorbance of 4-nitrophenol at 405 nm. Final enzyme and substrate (4-NPA) concentrations were 0.02 unit/mL and 1 mM, respectively. Reagent blanks included all constituents except enzyme.
(§5) Test compounds were dissolved in DMSO. Reaction mixtures contained a final DMSO concentration of 2% (v/v). Enzyme inhibition was first assessed at a single concentration of 20 µM for each compound after a 10 min incubation at 25 °C in three separate experiments. Compounds inhibiting the enzyme by more than 30% were then selected for determination of the IC50 (inhibitor concentration resulting in 50% inhibition of control enzyme activity). […] Substrate was then added, and residual enzyme activity relative to an inhibitor-free control was measured using a FLUOStar Optima microplate reader (LabTech, Ortenberg, Germany).

[3] = ORAC-FL (oxygen radical absorbance capacity) assay; assay type: biochemical; settings: mean ± SEM, n = 3; 2 h; read-out: ORAC-FL IC50 (compound concentration required for 50% reduction of peroxyl radical) (converted)
porcine liver CES = experiment: Inhibition of CES (4-nitrophenol acetate hydrolysis); assay type: biochemical; settings: ± SEM; for CES % inhibition at 20 μM: n = 3, 10 min incubation 25 °C; for IC50: n = 3
Source text: as §1, §2, §3, §4, §5

[4] = system: normal human dermal fibroblast (NHDF) cultures; experiment: Cytotoxicity, MTT/formazan assay; assay type: cell-based; settings: 72 h, MTT
Procedure: Cytotoxicity of compounds was evaluated using a culture of human dermal fibroblasts, which were isolated in the Laboratory of Cell Cultures of the Institute of Medical Cell Technologies, Ekaterinburg, Russia. Cells were seeded in 96-well plates in the inoculum dose of 2 × 10^5 cells/mL and cultured for 24 h in Dulbecco’s Modified Eagle Medium (DMEM), with 1% (w/v) glutamine in the presence of 10% (v/v) fetal bovine serum and gentamicin (50 mg/L) at 37 °C, with a humidified atmosphere of 5% (v/v) CO2. Then, compounds, which were solved in DMSO, were added to the wells at the final concentrations of 0.1, 1, 10, and 100 µM. The cells were incubated with compounds for 72 h, after which cell viability was assessed using the standard MTT assay. The assay was carried out in four replicates with negative (culture medium) and positive (solution of the cytotoxic drug camptothecin at a concentration of 3 mM) controls, and the solvent control (DMSO). […] The MTT staining of control cells was taken as 100%.

human erythrocyte AChE = target: T2, human erythrocyte AChE (Homo sapiens, UniProt P22303); experiment: Inhibition of AChE (Ellman's colorimetric assay); assay type: biochemical; settings: read-out: AChE % inhibition at 20 μM
T2 construct: Human erythrocyte acetylcholinesterase (AChE, EC 3.1.1.7); purchased Sigma-Aldrich (Saint Louis, MO, USA); host or cells: human erythrocytes
Source text: as §1, §2, §3, §4, §5

[5] = parameters: method as in PMID 16997555; settings: relative to EDA; cited from earlier work
[6] = 20 μM, ± SEM, n = 3, 10 min incubation 25 °C

T2 sequence (P22303 32-617 isoform P22303-2 limits assumed): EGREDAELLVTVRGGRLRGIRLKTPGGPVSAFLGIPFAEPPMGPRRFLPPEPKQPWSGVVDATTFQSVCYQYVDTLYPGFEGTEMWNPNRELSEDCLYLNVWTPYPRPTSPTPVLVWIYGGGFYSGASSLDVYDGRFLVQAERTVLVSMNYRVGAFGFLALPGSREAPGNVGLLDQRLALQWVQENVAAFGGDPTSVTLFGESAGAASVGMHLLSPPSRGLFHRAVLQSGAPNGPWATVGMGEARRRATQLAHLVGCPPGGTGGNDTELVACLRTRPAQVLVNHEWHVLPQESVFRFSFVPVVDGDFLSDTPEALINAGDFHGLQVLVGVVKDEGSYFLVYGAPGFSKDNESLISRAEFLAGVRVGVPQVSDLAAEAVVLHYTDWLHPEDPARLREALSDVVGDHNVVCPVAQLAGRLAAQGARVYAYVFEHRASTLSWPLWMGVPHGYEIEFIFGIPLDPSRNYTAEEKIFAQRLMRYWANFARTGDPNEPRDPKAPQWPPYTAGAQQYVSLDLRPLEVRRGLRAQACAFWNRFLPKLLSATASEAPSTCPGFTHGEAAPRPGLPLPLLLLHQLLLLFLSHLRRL
T1 sequence (P81908 whole entry): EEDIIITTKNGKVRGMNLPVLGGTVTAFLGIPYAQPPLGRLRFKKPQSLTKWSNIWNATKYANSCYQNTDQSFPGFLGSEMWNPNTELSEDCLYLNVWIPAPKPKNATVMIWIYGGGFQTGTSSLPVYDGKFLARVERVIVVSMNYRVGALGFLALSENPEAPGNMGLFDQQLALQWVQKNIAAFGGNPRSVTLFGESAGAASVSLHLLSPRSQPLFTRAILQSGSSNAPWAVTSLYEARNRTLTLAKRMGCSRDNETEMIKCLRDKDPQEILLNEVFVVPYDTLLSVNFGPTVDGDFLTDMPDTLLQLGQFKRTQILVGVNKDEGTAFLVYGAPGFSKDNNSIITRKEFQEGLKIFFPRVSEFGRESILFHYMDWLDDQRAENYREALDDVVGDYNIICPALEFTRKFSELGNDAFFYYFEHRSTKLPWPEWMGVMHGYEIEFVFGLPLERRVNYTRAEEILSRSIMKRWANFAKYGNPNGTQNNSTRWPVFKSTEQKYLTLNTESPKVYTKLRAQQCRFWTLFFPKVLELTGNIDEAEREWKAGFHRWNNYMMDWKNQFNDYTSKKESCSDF

Molecule	FRAP TE (Trolox equivalent) [1] [TE]	inhibition at 20 µM [2] [%]	CES % inhibition at 20 μM (porcine liver CES) [%]	IC50 (porcine liver CES)	inhibition at 20 µM (human erythrocyte AChE) [%]	also measured
CC1=NNC(=O)/C1=N\O [1j]	0.09 ± 0.01	3.8 ± 1.3				
3-methyl-1-phenyl-2-pyrazolin-5-one [EDA, reference compound]	0.80 ± 0.01		8.4 ± 0.7			IC50 [3]: 5.6 µM; Inhibitory Capability (IC, %) on NHDF ([4]; 1 µM): 3.74 ± 0.05%; Inhibitory Capability (IC, %) on NHDF ([4]; 10 µM): 19.9 ± 0.8%; Inhibitory Capability (IC, %) on NHDF ([4]; 100 µM): 32.8 ± 0.6%; BChE % inhibition at 20 μM [2]: 4.6 ± 0.2%
Nc1c(C(F)(F)C(F)(F)C(F)(F)C(F)(F)F)nn(-c2ccccc2)c1O [4c, 5-Hydroxy-1-phenyl-3-(nonafluorobuthyl)-1H-pyrazol-4-ammonium hydrochloride]	0.98 ±0.05	10.3 ± 1.2		10 µM and 10.2 µM	19.2 ± 1.7	
O=C1NN=C(C(F)(F)C(F)(F)F)/C1=N/O [1g]	0.13 ± 0.01		7.8 ± 1.4			
Cl.Nc1c(C(F)(F)C(F)(F)F)nn(-c2ccccc2)c1O.O [4b, 4-Amino-3-(pentafluoroethyl)-1-phenyl-1H-pyrazol-5-ol hydrate hydrochloride]	0.75 ± 0.07	12.8 ± 1.5	16.6 ± 1.4		4.4 ± 1.1	
Cl.Nc1c(C(F)(F)C(F)(F)F)n[nH]c1O.O [4g, 4-Amino-3-(pentafluoroethyl)-1H-pyrazol-5-ol hydrate hydrochloride]	0.88 ± 0.04	8.9 ± 1.4	6.7 ± 1.2		17.3 ± 1.7	
Cl.Nc1c(C(F)(F)F)n[nH]c1O [4e, 4-Amino-3-(trifluoromethyl)-1H-pyrazol-5-ol hydrochloride]	1.02 ± 0.02	5.6 ± 1.5				inhibition at 20 µM (human erythrocyte AChE; [6]): 9.7 ± 1.5%
Cc1n[nH]c(O)c1N.Cl [4j, 4-Amino-3-methyl-1H-pyrazol-5-ol hydrochloride]	1.04 ± 0.04	13.9 ± 1.6	4.3 ± 0.9			Cytotoxicity against NHDF cell culture ([4]; 100 µM): neither of the compounds 4d,j showed cytotoxicity
Cl.Nc1c(C(F)(F)F)nn(-c2ccccc2)c1O [4a, 4-Amino-3-(trifluoromethyl)-1-phenyl-1H-pyrazol-5-ol hydrochloride]	0.89 ± 0.05	6.9 ± 1.1		44.9 ± 4 µM		IC50 [3]: 8.8 µM; inhibition at 20 µM (human erythrocyte AChE; [6]): 7.9 ± 1.5%
Cl.Nc1c(C(F)(F)C(F)(F)C(F)(F)C(F)(F)F)n[nH]c1O.O [4i, 4-Amino-3-(nonafluorobutyl)-1H-pyrazol-5-ol hydrate hydrochloride]	0.75 ± 0.05			22 µM and 21.8 µM	5.1 ± 0.9	
Oc1cc(C(F)(F)F)nn1-c1ccccc1 [CF3-EDA, 3-trifluoromethyl-1-phenylpyrazol-5-ol, reference compound]	0.63 ± 0.03		7.6 ± 1.2			Times less active compared to EDA in the OH radical binding test [5]: 3 times; Ferric reducing activity lower than that of EDA ([1]; FRAP test, relative to EDA): 20%; IC50 [3]: 6.3 µM
Cc1nn(-c2ccccc2)c(O)c1N.Cl.O [4d, 4-Amino-3-methyl-1-phenyl-1H-pyrazol-5-ol hydrochloride hydrate]	0.98 ± 0.08	5.1 ± 1.3		98.7 ± 8.8 µM	6.5 ± 1.2	FRAP TE (Trolox equivalent) ([1]; listed as APH): 0.98 TE; IC50 [3]: 6.85 µM; Cytotoxicity against NHDF cell culture ([4]; 100 µM): neither of the compounds 4d,j showed cytotoxicity; Cytotoxicity against NHDF cell culture ([4]; 100 µM, listed as APH): not cytotoxic
O=C1NN=C(C(F)(F)F)/C1=N/O [1e]	0.07 ± 0.01		5.9 ± 1.1			
Cl.Nc1c(C(F)(F)C(F)(F)C(F)(F)F)n[nH]c1O.O [4h, 4-Amino-3-(heptafluoropropyl)-1H-pyrazol-5-ol hydrate hydrochloride]	1.03 ± 0.04	3.4 ± 0.9		81.8 ± 7.3 µM		
